Assay results from patent US20250346602A1, “LACTAM SUBSTITUTED IMIDAZOPYRIDAZINE IL-17A MODULATORS AND USES THEREOF” (DICE ALPHA, INC., priority 2022, published 2025).

Target: T1, IL-17A/A (Homo sapiens, UniProt Q16552)
T1 construct: purchased Genscript Z03228
T1 sequence (Q16552 24-155): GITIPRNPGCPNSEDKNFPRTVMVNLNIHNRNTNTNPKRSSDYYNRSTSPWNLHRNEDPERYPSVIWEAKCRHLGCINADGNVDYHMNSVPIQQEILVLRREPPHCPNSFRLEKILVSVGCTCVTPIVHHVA
Test: IL-17A/A HEK-Blue cell assay
Format: cell-based
Settings: HEK-Blue IL-17A reporter cell line (HEK 293), IL-17A/A stimulation, 20 hours incubation, SEAP read at A630
Summary of the method: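 HEK293 reporter cells expressing IL-17RA, IL-17RC and Act1 were given titrated compound (top final 10, 1 or 0.3 uM; 0.1% DMSO) right before IL-17A/A and incubated 20 hours. NFκB-driven SEAP in the media was read at A630 with Quanti-Blue, and IC50 came from a 4-parameter nonlinear fit.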

Compound	IC50 [µM]
O=C1NC[C@H](C(F)(F)F)CC1Cc1ccc2nc([C@@H](NC(=O)C3CC34CC(F)(F)C4)C3CCC(F)(F)CC3)cn2n1 (single isomer, unassigned) [Compound 130]	> 1
O=C1NC[C@H](C(F)(F)F)CC1Cc1ccc2nc([C@@H](NC(=O)C3CC34CC(F)(F)C4)C3CCC(F)(F)CC3)cn2n1 (single isomer, unassigned) [Compound 131]	0.1 to 1
CCn1nccc1C(=O)N[C@H](c1cn2nc(CC3C[C@@H](C(F)(F)F)CNC3=O)ccc2n1)C1CC2(C1)CC(F)(F)C2 (single isomer, unassigned) [Compound 173]	0.1 to 1
CCn1nccc1C(=O)NC(c1cn2nc(CC3C[C@@H](C(F)(F)F)CNC3=O)ccc2n1)C1CCC2CC2CC1 (single isomer, unassigned) [Compound 174]	> 1
CCn1nccc1C(=O)NC(c1cn2nc(CC3C[C@@H](C(F)(F)F)CNC3=O)ccc2n1)C1CCC2CC2CC1 (single isomer, unassigned) [Compound 175]	0.1 to 1
CCn1nccc1C(=O)NC(c1cn2nc(CC3C[C@@H](C(F)(F)F)CNC3=O)ccc2n1)C1CCC2CC2CC1 (single isomer, unassigned) [Compound 176]	< 0.1
CCn1nccc1C(=O)N[C@H](c1cn2nc(CC3C[C@@H](C(F)(F)F)CNC3=O)c(N(C)CC(F)(F)F)cc2n1)C1CCC(F)(F)CC1 (single isomer, unassigned) [Compound 181]	< 0.1
CCn1nccc1C(=O)N[C@H](c1cn2nc(CC3C[C@@H](C(F)(F)F)CNC3=O)c(N(C)CC(F)(F)F)cc2n1)C1CCC(F)(F)CC1 (single isomer, unassigned) [Compound 182]	0.1 to 1
CCn1nccc1C(=O)N[C@H](c1cn2nc(CC3C[C@@H](C(F)(F)F)CNC3=O)ccc2n1)C1CCC2(CC1)CC2 (single isomer, unassigned) [Compound 188]	0.1 to 1
CCn1nccc1C(=O)N[C@H](c1cn2nc(CC3C[C@@H](C(F)(F)F)CNC3=O)ccc2n1)C1CC2(CCC2)C1 (single isomer, unassigned) [Compound 189]	0.1 to 1
CCn1nccc1C(=O)N[C@H](c1cn2nc(CC3C[C@@H](C(F)(F)F)CNC3=O)ccc2n1)C1CC2(CCC2)C1 (single isomer, unassigned) [Compound 190]	> 1
CCn1nccc1C(=O)N[C@H](c1cn2nc(CC3CC(C(F)(F)F)CNC3=O)ccc2n1)C1CCCCCC1 (single isomer, unassigned) [Compound 195]	> 1
CCn1nccc1C(=O)N[C@H](c1cn2ncc(CC3C[C@@H](C(F)(F)F)NC3=O)cc2n1)C(C1CC1)C1CC1 (single isomer, unassigned) [Compound 201]	> 1
CCn1nccc1C(=O)N[C@H](c1cn2ncc(CC3C[C@@H](C(F)(F)F)NC3=O)cc2n1)C(C1CC1)C1CC1 (single isomer, unassigned) [Compound 202]	0.1 to 1
CCn1nccc1C(=O)N[C@H](c1cn2ncc(CC3C[C@@H](C(F)(F)F)NC3=O)cc2n1)C1CCC(F)(F)CC1 (single isomer, unassigned) [Compound 204]	< 0.1
O=C(N[C@H](c1cn2ncc(CC3C[C@@H](C(F)(F)F)NC3=O)cc2n1)C1CCC(F)(F)CC1)c1nonc1C1CC1 (single isomer, unassigned) [Compound 205]	< 0.1
CCn1nccc1C(=O)N[C@H](c1cn2ncc(CC3C[C@@H](C(F)(F)F)CNC3=O)cc2n1)C(C1CC1)C1CC1 (single isomer, unassigned) [Compound 208]	0.1 to 1
CCn1nccc1C(=O)N[C@H](c1cn2ncc(CC3C[C@H](C(F)(F)F)CNC3=O)cc2n1)C(C1CC1)C1CC1 (single isomer, unassigned) [Compound 209]	> 1
CCn1nccc1C(=O)NC(c1cn2ncc(CC3CC(F)(F)CNC3=O)cc2n1)C1CCC(C)CC1 (single isomer, unassigned) [Compound 210]	> 1

Compound	IC50 [µM]
CCn1nccc1C(=O)NC(c1cn2ncc(CC3CC(F)(F)CNC3=O)cc2n1)C1CCC(C)CC1 (single isomer, unassigned) [Compound 211]	0.1 to 1
CCn1nccc1C(=O)N[C@H](c1cn2ncc(CC3C[C@@H](C(F)(F)F)NC3=O)cc2n1)[C@H]1CC[C@H](C)CC1 (single isomer, unassigned) [Compound 212]	< 0.1
CCn1nccc1C(=O)NC(c1cn2ncc(CC3CCC(C(F)(F)F)NC3=O)cc2n1)C1CCC(C)CC1 (single isomer, unassigned) [Compound 213]	> 1
CCn1nccc1C(=O)NC(c1cn2ncc(CC3CCC(C(F)(F)F)NC3=O)cc2n1)C1CCC(C)CC1 (single isomer, unassigned) [Compound 214]	0.1 to 1
O=C(N[C@H](c1cn2ncc(CC3C[C@@H](C(F)(F)F)NC3=O)cc2n1)C1CCC(F)(F)CC1)c1conc1C(F)(F)F (single isomer, unassigned) [Compound 215]	< 0.1
CCn1nccc1C(=O)N[C@H](c1cn2ncc(CC3C[C@@H](C(F)(F)F)CNC3=O)cc2n1)[C@H]1CC[C@H](C)CC1 (single isomer, unassigned) [Compound 216]	0.1 to 1
CC[C@@H](c1ccc(F)cc1)[C@H](NC(=O)c1ccnn1CC)c1cn2ncc(CC3C[C@@H](C(F)(F)F)NC3=O)cc2n1 (single isomer, unassigned) [Compound 217]	> 1
CC[C@@H](c1ccc(F)cc1)[C@H](NC(=O)c1ccnn1CC)c1cn2ncc(CC3C[C@@H](C(F)(F)F)NC3=O)cc2n1 (single isomer, unassigned) [Compound 218]	< 0.1
O=C(N[C@H](c1cn2ncc(CC3C[C@@H](C(F)(F)F)NC3=O)cc2n1)C1CCC(F)(F)CC1)c1conc1C1CC1 (single isomer, unassigned) [Compound 219]	< 0.1
Cc1nonc1C(=O)N[C@H](c1cn2nc(CC3CCCNC3=O)ccc2n1)C1CCCCCC1 (stereo partly drawn) [Compound 2, N-((1S)-cycloheptyl(6-((2-oxopiperidin-3-yl)methyl)imidazo[1,2-b]pyridazin-2-yl)methyl)-4-methyl-1,2,5-oxadiazole-3-carboxamide]	> 1
CCn1nccc1C(=O)N[C@H](c1cn2nc(CC3CC(C(F)(F)F)CNC3=O)ccc2n1)C1CCCCCC1 (some centres unmarked) [Compound 3, N-((1 S)-cycloheptyl(6-((2-oxo-5-(trifluoromethyl)piperidin-3-yl)methyl)imidazo[1,2-b]pyridazin-2-yl)methyl)-1-ethyl-1H-pyrazole-5-carboxamide]	< 0.1
CCn1nccc1C(=O)N[C@H](c1cn2nc(CC3C[C@@H](C(F)(F)F)NC3=O)ccc2n1)C1CCC(F)(F)CC1 (stereo partly drawn) [Compound 7, N-((1S)-(4,4-difluorocyclohexyl)(6-(((5S)-2-oxo-5-(trifluoromethyl)pyrrolidin-3-yl)methyl)imidazo[1,2-b]pyridazin-2-yl)methyl)-1-ethyl-1H-pyrazole-5-carboxamide]	0.1 to 1
CCc1nonc1C(=O)N[C@H](c1cn2nc(C[C@H]3C[C@@H](C(F)(F)F)NC3=O)ccc2n1)C1CCC(F)(F)CC1 [Compound 17, N—((S)-(4,4-difluorocyclohexyl)(6-(((3R,5S)-2-oxo-5-(trifluoromethyl)pyrrolidin-3-yl)methyl)imidazo[1,2-b]pyridazin-2-yl)methyl)-4-ethyl-1,2,5-oxadiazole-3-carboxamide]	0.1 to 1
Cc1nonc1C(=O)N[C@H](c1cn2nc(C[C@H]3C[C@@H](C(F)(F)F)NC3=O)ccc2n1)C1CCC(F)(F)CC1 [Compound 18, N—((S)-(4,4-difluorocyclohexyl)(6-(((3R,5S)-2-oxo-5-(trifluoromethyl)pyrrolidin-3-yl)methyl)imidazo[1,2-b]pyridazin-2-yl)methyl)-4-methyl-1,2,5-oxadiazole-3-carboxamide]	> 1
CCc1nonc1C(=O)N[C@H](c1cn2nc(C[C@H]3C[C@@H](C(F)(F)F)NC3=O)ccc2n1)C(C1CC1)C1CC1 [Compound 20, N—((S)-2,2-dicyclopropyl-1-(6-(((3R,5S)-2-oxo-5-(trifluoromethyl)pyrrolidin-3-yl)methyl)imidazo[1,2-b]pyridazin-2-yl)ethyl)-4-ethyl-1,2,5-oxadiazole-3-carboxamide]	0.1 to 1
Cc1nonc1C(=O)N[C@H](c1cn2nc(C[C@H]3C[C@@H](C(F)(F)F)NC3=O)ccc2n1)C(C1CC1)C1CC1 [Compound 21, N—((S)-2,2-dicyclopropyl-1-(6-(((3R,5S)-2-oxo-5-(trifluoromethyl)pyrrolidin-3-yl)methyl)imidazo[1,2-b]pyridazin-2-yl)ethyl)-4-methyl-1,2,5-oxadiazole-3-carboxamide]	> 1
CC[C@@H](c1ccc(F)cc1)[C@H](NC(=O)c1ccnn1CC)c1cn2nc(C[C@H]3C[C@@H](C(F)(F)F)NC3=O)ccc2n1 [Compound 22, 1-ethyl-N-((1S,2S)-2-(4-fluorophenyl)-1-(6-(((3R,5S)-2-oxo-5-(trifluoromethyl)pyrrolidin-3-yl)methyl)imidazo[1,2-b]pyridazin-2-yl)butyl)-1H-pyrazole-5-carboxamide]	0.1 to 1
CCc1nonc1C(=O)N[C@H](c1cn2nc(C[C@H]3CCCNC3=O)ccc2n1)C(C1CC1)C1CC1 [Compound 35, N—((S)-2,2-dicyclopropyl-1-(6-(((R)-2-oxopiperidin-3-yl)methyl)imidazo[1,2-b]pyridazin-2-yl)ethyl)-4-ethyl-1,2,5-oxadiazole-3-carboxamide]	0.1 to 1
Cc1nonc1C(=O)N[C@H](c1cn2nc(C[C@H]3CCCNC3=O)ccc2n1)C(C1CC1)C1CC1 [Compound 36, N—((S)-2,2-dicyclopropyl-1-(6-(((R)-2-oxopiperidin-3-yl)methyl)imidazo[1,2-b]pyridazin-2-yl)ethyl)-4-methyl-1,2,5-oxadiazole-3-carboxamide]	> 1
